From patent publication US12391733B2, “Stapled intracellular-targeting antimicrobial peptides to treat infection” (priority 2016, dated 2025)
Positions of bridges follow the written chain, without caps; N, C: chain ends. Non-standard residues stand in square brackets, D forms with d. Residues, ends and D or L forms follow the SMILES beside them. R8 = C=CCCCCCC[C@@](C)(N)C(=O)O; S5 = C=CCCC[C@](C)(N)C(=O)O

Columns and labels:
[1] = circular dichroism; conditions: 10 mM phosphate buffer; pH 7.4; ns °C; 100 uM
[2] = test system: E. coli; assay type: cell-based, Escherichia coli; conditions: Table 1; microbroth dilution, refined MHB, 20-24 hours at 37° C.
Experimental: Antimicrobial Activity Assay The following microbroth dilution protocol was adapted to determine the MIC of each peptide. First, Mueller-Hinton broth (MHB) was passed through an anion exchange column to remove polyanionic species and generate refined MHB. This refined broth was then used in the standard microbroth dilution protocol devised by Hancock et al. for 96 well plates. […] Briefly, bacterial cells were grown overnight in refined MHB at 37° C. and then diluted and allowed to grow again for several hours. Serial dilutions of peptide stocks in water (10 μl) were prepared using clear round-bottom polypropylene 96-well plates. Then 90 μl of bacteria in refined MHB was added to give a final inoculum of 5×10^5 CFU/ml. The plates were then covered with porous tape to reduce evaporation, and incubated for 20-24 hours at 37° C.

[3] = test system: human red blood cells (RBCs); assay type: cell-based; conditions: red cells of human, 1 h, 50
Source text: One of the key obstacles that have long impeded the use of AMPs in systemic infections such as sepsis is their tendency to lyse human cells, such as red blood cells (RBCs). Thus, it is critical to minimize hemolytic activity as much as possible to achieve a therapeutic window. […] Of note, in those circumstances where hydrocarbon staples increase hemolytic activity due to increasing hydrophobicity, the alkene moiety can be modified, e.g., by dihydroxylation, to install hydrophilic residues and potentially mitigate hemolysis.
Hemolytic Activity Assay For the determination of hemolytic activity, the following protocol was applied: human blood samples were centrifuged to isolate red blood cells (RBCs), which were then washed and suspended in phosphate-buffered saline to yield a 1% (v/v) suspension. This suspension was then added to serial dilutions of peptide stocks in water in clear round-bottom polypropylene 96-well plates and the plates incubated for 1 hour at 37° C. After incubation, the plates were centrifuged and the supernatant isolated to determine the amount of hemoglobin released using a spectrophotometer (570 nm). The minimum hemolytic concentration (MHC) was determined by assessing the peptide concentration at which there was less than 1% hemoglobin release.

Row | Structure (SMILES) | helicity [1] | Antimicrobial Activity NIC (μg/ml) E. coli [2] | % Hemolysis at 50 μg/ml [3]
1 | CC(C)C[C@H](NC(=O)CNC(=O)[C@H](C)NC(=O)[C@H](CCCNC(=N)N)NC(=O)[C@H](CO)NC(=O)[C@H](CO)NC(=O)[C@H](CCCNC(=N)N)NC(=O)[C@@H](N)[C@@H](C)O)C(=O)N[C@@H](CCC(N)=O)C(=O)N[C@@H](Cc1c[nH]c2ccccc12)C(=O)N1CCC[C@H]1C(=O)N[C@H](C(=O)NCC(=O)N[C@@H](CCCNC(=N)N)C(=O)N[C@H](C(=O)N[C@@H](Cc1c[nH]cn1)C(=O)N[C@@H](CCCNC(=N)N)C(=O)N[C@@H](CC(C)C)C(=O)N[C@@H](CC(C)C)C(=O)N[C@@H](CCCNC(=N)N)C(=O)N[C@@H](CCCCN)C(N)=O)C(C)C)C(C)C | 0% | – | –
2 | CC(C)C[C@H](NC(=O)CNC(=O)[C@H](C)NC(=O)[C@H](CCCNC(=N)N)NC(=O)[C@H](CO)NC(=O)[C@H](CO)NC(=O)[C@H](CCCNC(=N)N)NC(=O)[C@@H](N)[C@@H](C)O)C(=O)N[C@@H](CCC(N)=O)C(=O)N[C@@H](Cc1c[nH]c2ccccc12)C(=O)N1CCC[C@H]1C(=O)N[C@H](C(=O)NCC(=O)N[C@@H](CCCNC(=N)N)C(=O)N[C@H](C(=O)N[C@@H](Cc1c[nH]cn1)C(=O)N[C@@]1(C)CCCC=CCCC[C@@](C)(C(N)=O)NC(=O)[C@H](CCCNC(=N)N)NC(=O)[C@H](CC(C)C)NC(=O)[C@H](CC(C)C)NC1=O)C(C)C)C(C)C [BFStap(i + 4)1] (H-TRSSRAGLQWPVGRVH[S5]LLR[S5]-NH2; staple 17-21; N-terminus and C-terminus assumed) | – | 50.0 µg/mL | 2.2%
3 | CC(C)C[C@H](NC(=O)CNC(=O)[C@H](C)NC(=O)[C@H](CCCNC(=N)N)NC(=O)[C@H](CO)NC(=O)[C@H](CO)NC(=O)[C@H](CCCNC(=N)N)NC(=O)[C@@H](N)[C@@H](C)O)C(=O)N[C@@H](CCC(N)=O)C(=O)N[C@@H](Cc1c[nH]c2ccccc12)C(=O)N1CCC[C@H]1C(=O)N[C@H](C(=O)NCC(=O)N[C@@H](CCCNC(=N)N)C(=O)N[C@H](C(=O)N[C@@]1(C)CCCC=CCCC[C@@](C)(C(=O)N[C@@H](CCCCN)C(N)=O)NC(=O)[C@H](CC(C)C)NC(=O)[C@H](CC(C)C)NC(=O)[C@H](CCCNC(=N)N)NC1=O)C(C)C)C(C)C [BFStap(i + 4)2] (H-TRSSRAGLQWPVGRV[S5]RLL[S5]K-NH2; staple 16-20) | 3.2% | – | 12.6%
4 | CC(C)C[C@H](NC(=O)CNC(=O)[C@H](C)NC(=O)[C@H](CCCNC(=N)N)NC(=O)[C@H](CO)NC(=O)[C@H](CO)NC(=O)[C@H](CCCNC(=N)N)NC(=O)[C@@H](N)[C@@H](C)O)C(=O)N[C@@H](CCC(N)=O)C(=O)N[C@@H](Cc1c[nH]c2ccccc12)C(=O)N1CCC[C@H]1C(=O)N[C@H](C(=O)NCC(=O)N[C@@H](CCCNC(=N)N)C(=O)N[C@@]1(C)CCCC=CCCC[C@@](C)(C(=O)N[C@@H](CCCNC(=N)N)C(=O)N[C@@H](CCCCN)C(N)=O)NC(=O)[C@H](CC(C)C)NC(=O)[C@H](CCCNC(=N)N)NC(=O)[C@H](Cc2c[nH]cn2)NC1=O)C(C)C [BFStap(i + 4)3] (H-TRSSRAGLQWPVGR[S5]HRL[S5]RK-NH2; staple 15-19; N-terminus and C-terminus assumed) | 4.3% | 25.0 µg/mL | 2.9%
5 | CC(C)C[C@H](NC(=O)CNC(=O)[C@H](C)NC(=O)[C@H](CCCNC(=N)N)NC(=O)[C@H](CO)NC(=O)[C@H](CO)NC(=O)[C@H](CCCNC(=N)N)NC(=O)[C@@H](N)[C@@H](C)O)C(=O)N[C@@H](CCC(N)=O)C(=O)N[C@@H](Cc1c[nH]c2ccccc12)C(=O)N1CCC[C@H]1C(=O)N[C@H](C(=O)NCC(=O)N[C@@]1(C)CCCC=CCCC[C@@](C)(C(=O)N[C@@H](CC(C)C)C(=O)N[C@@H](CCCNC(=N)N)C(=O)N[C@@H](CCCCN)C(N)=O)NC(=O)[C@H](CCCNC(=N)N)NC(=O)[C@H](Cc2c[nH]cn2)NC(=O)[C@H](C(C)C)NC1=O)C(C)C [BFStap(i + 4)4] (H-TRSSRAGLQWPVG[S5]VHR[S5]LRK-NH2; staple 14-18; N-terminus and C-terminus assumed) | 6% | 29.2 µg/mL | 2.9%
6 | CC(C)C[C@H](NC(=O)CNC(=O)[C@H](C)NC(=O)[C@H](CCCNC(=N)N)NC(=O)[C@H](CO)NC(=O)[C@H](CO)NC(=O)[C@H](CCCNC(=N)N)NC(=O)[C@@H](N)[C@@H](C)O)C(=O)N[C@@H](CCC(N)=O)C(=O)N[C@@H](Cc1c[nH]c2ccccc12)C(=O)N1CCC[C@H]1C(=O)N[C@H](C(=O)N[C@@]1(C)CCCC=CCCC[C@@](C)(C(=O)N[C@@H](CC(C)C)C(=O)N[C@@H](CC(C)C)C(=O)N[C@@H](CCCNC(=N)N)C(=O)N[C@@H](CCCCN)C(N)=O)NC(=O)[C@H](Cc2c[nH]cn2)NC(=O)[C@H](C(C)C)NC(=O)[C@H](CCCNC(=N)N)NC1=O)C(C)C [BFStap(i + 4)5] (H-TRSSRAGLQWPV[S5]RVH[S5]LLRK-NH2; staple 13-17; N-terminus and C-terminus assumed) | 8.8% | 66.7 µg/mL | 3.0%
7 | CC(C)C[C@H](NC(=O)CNC(=O)[C@H](C)NC(=O)[C@H](CCCNC(=N)N)NC(=O)[C@H](CO)NC(=O)[C@H](CO)NC(=O)[C@H](CCCNC(=N)N)NC(=O)[C@@H](N)[C@@H](C)O)C(=O)N[C@@H](CCC(N)=O)C(=O)N[C@@H](Cc1c[nH]c2ccccc12)C(=O)N1CCC[C@H]1C(=O)N[C@@]1(C)CCCC=CCCC[C@@](C)(C(=O)N[C@@H](CCCNC(=N)N)C(=O)N[C@@H](CC(C)C)C(=O)N[C@@H](CC(C)C)C(=O)N[C@@H](CCCNC(=N)N)C(=O)N[C@@H](CCCCN)C(N)=O)NC(=O)[C@H](C(C)C)NC(=O)[C@H](CCCNC(=N)N)NC(=O)CNC1=O [BFStap(i + 4)6] (H-TRSSRAGLQWP[S5]GRV[S5]RLLRK-NH2; staple 12-16) | – | – | 10.0%
8 | CC(C)C[C@H](NC(=O)CNC(=O)[C@H](C)NC(=O)[C@H](CCCNC(=N)N)NC(=O)[C@H](CO)NC(=O)[C@H](CO)NC(=O)[C@H](CCCNC(=N)N)NC(=O)[C@@H](N)[C@@H](C)O)C(=O)N[C@@H](CCC(N)=O)C(=O)N[C@@H](Cc1c[nH]c2ccccc12)C(=O)N1CCC[C@H]1C(=O)N[C@]1(C)CCCCCCC=CCCC[C@@](C)(C(=O)N[C@@H](CCCNC(=N)N)C(=O)N[C@@H](CCCCN)C(N)=O)NC(=O)[C@H](CC(C)C)NC(=O)[C@H](CCCNC(=N)N)NC(=O)[C@H](Cc2c[nH]cn2)NC(=O)[C@H](C(C)C)NC(=O)[C@H](CCCNC(=N)N)NC(=O)CNC1=O [BFStap(i + 7)3] (H-TRSSRAGLQWP[R8]GRVHRL[S5]RK-NH2; staple 12-19; N-terminus and C-terminus assumed) | – | 29.2 µg/mL | 6.1%
9 | CC(C)C[C@H](NC(=O)[C@H](CC(C)C)NC(=O)[C@H](CCCNC(=N)N)NC(=O)[C@H](Cc1c[nH]cn1)NC(=O)[C@]1(C)CCCC=CCCCCCC[C@@](C)(NC(=O)CNC(=O)[C@H](C)NC(=O)[C@H](CCCNC(=N)N)NC(=O)[C@H](CO)NC(=O)[C@H](CO)NC(=O)[C@H](CCCNC(=N)N)NC(=O)[C@@H](N)[C@@H](C)O)C(=O)N[C@@H](CCC(N)=O)C(=O)N[C@@H](Cc2c[nH]c3ccccc23)C(=O)N2CCC[C@H]2C(=O)N[C@@H](C(C)C)C(=O)NCC(=O)N[C@@H](CCCNC(=N)N)C(=O)N1)C(=O)N[C@@H](CCCNC(=N)N)C(=O)N[C@@H](CCCCN)C(N)=O [BFStap(i + 7)5] (H-TRSSRAG[R8]QWPVGR[S5]HRLLRK-NH2; staple 8-15; N-terminus and C-terminus assumed) | – | 52.1 µg/mL | 6.8%
10 | CC(C)C[C@@H]1NC(=O)CNC(=O)[C@H](C)NC(=O)[C@](C)(NC(=O)[C@H](CO)NC(=O)[C@H](CO)NC(=O)[C@H](CCCNC(=N)N)NC(=O)[C@@H](N)[C@@H](C)O)CCCCCCC=CCCC[C@@](C)(C(=O)NCC(=O)N[C@@H](CCCNC(=N)N)C(=O)N[C@H](C(=O)N[C@@H](Cc2c[nH]cn2)C(=O)N[C@@H](CCCNC(=N)N)C(=O)N[C@@H](CC(C)C)C(=O)N[C@@H](CC(C)C)C(=O)N[C@@H](CCCNC(=N)N)C(=O)N[C@@H](CCCCN)C(N)=O)C(C)C)NC(=O)[C@@H]2CCCN2C(=O)[C@H](Cc2c[nH]c3ccccc23)NC(=O)[C@H](CCC(N)=O)NC1=O [BFStap(i + 7)8] (H-TRSS[R8]AGLQWP[S5]GRVHRLLRK-NH2; staple 5-12) | 0% | – | 3.9%
11 | CC(C)C[C@H](NC(=O)CNC(=O)[C@H](C)NC(=O)[C@H](CCCNC(=N)N)NC(=O)[C@H](CO)NC(=O)[C@H](CO)NC(=O)[C@H](CCCNC(=N)N)NC(=O)[C@@H](N)[C@@H](C)O)C(=O)N[C@@H](CCC(N)=O)C(=O)N[C@@H](Cc1c[nH]c2ccccc12)C(=O)N1CCC[C@H]1C(=O)N[C@H](C(=O)NCC(=O)N[C@@H](CCCNC(=N)N)C(=O)N[C@H](C(=O)N[C@@H](Cc1cnc[nH]1)C(=O)N[C@@H](CCCNC(=N)N)C(=O)N[C@@H](CC(C)C)C(=O)N[C@@H](CC(C)C)C(=O)N[C@@H](CCCNC(=N)N)C(=O)N[C@@H](CCCCN)C(=O)O)C(C)C)C(C)C [Buforin II(F10W), reference compound] | – | >800 µg/mL | 2.7%
